Reference: patent US8541449B2, “Substituted isoquinolines and isoquinolinones as Rho kinase inhibitors” (Sanofi, priority 2008, dated 2013)

Tests used:
Assay type in all cases: biochemical
[1] = biological target: T1, human recombinant ROCK II (Homo sapiens, UniProt O75116); assay: Determination of Rho kinase inhibition (Caliper peptide phosphorylation assay); settings: 60 min at 32° C., negative decadal logarithm of the IC50
T1 construct: N-terminal His6-tagged recombinant human ROCK-II residues 11-552; His6 (N); purchased Millipore GmbH, Schwalbach, Germany
Outline: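 His6-tagged human ROCK II (residues 11-552) phosphorylated a fluorescein-labelled peptide for 60 min at 32° C in Tris-HCl pH 7.4 with MgCl2, DTT and BSA, using 3 μM peptide and 120 μM ATP as diluted stocks. EDTA-stopped; phosphopeptide separated and detected by Caliper mobility shift; IC50 determined.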

[2] = biological target: T2, recombinant human PKA (Homo sapiens, UniProt P17612); assay: Determination of Protein Kinase A inhibition (Caliper peptide phosphorylation assay); settings: recombinant human PKA versus ROCK II
T2 construct: Active recombinant human PKA (residues 1-351, N-terminal His-tag); His-tag (N); purchased Invitrogen, Karlsruhe, Germany
Outline: (§1)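 Full-length His-tagged PKG1-beta (150 ng/ml working) or His-tagged PKA residues 1-351 (30 ng/ml working) was mixed with compound in pH 7.4 Tris/MgCl2/DTT buffer. Fluorescein-peptide substrate and ATP (3 μM and 120 μM working) were then added for 60 min at 32 °C before an EDTA stop. Phosphopeptide was separated electrophoretically on a Caliper instrument to derive IC50.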

[3] = biological target: T3, recombinant human PKG1-beta (Homo sapiens, UniProt Q13976); assay: Determination of Protein Kinase G inhibition (Caliper peptide phosphorylation assay); settings: recombinant human PKG1-beta versus ROCK II
T3 construct: Active recombinant human PKG1-beta (full-length, with N-terminal His-tag); His-tag (N); purchased Millipore GmbH, Schwalbach, Germany
T3 sequence (Q13976 1-686 isoform Q13976-2): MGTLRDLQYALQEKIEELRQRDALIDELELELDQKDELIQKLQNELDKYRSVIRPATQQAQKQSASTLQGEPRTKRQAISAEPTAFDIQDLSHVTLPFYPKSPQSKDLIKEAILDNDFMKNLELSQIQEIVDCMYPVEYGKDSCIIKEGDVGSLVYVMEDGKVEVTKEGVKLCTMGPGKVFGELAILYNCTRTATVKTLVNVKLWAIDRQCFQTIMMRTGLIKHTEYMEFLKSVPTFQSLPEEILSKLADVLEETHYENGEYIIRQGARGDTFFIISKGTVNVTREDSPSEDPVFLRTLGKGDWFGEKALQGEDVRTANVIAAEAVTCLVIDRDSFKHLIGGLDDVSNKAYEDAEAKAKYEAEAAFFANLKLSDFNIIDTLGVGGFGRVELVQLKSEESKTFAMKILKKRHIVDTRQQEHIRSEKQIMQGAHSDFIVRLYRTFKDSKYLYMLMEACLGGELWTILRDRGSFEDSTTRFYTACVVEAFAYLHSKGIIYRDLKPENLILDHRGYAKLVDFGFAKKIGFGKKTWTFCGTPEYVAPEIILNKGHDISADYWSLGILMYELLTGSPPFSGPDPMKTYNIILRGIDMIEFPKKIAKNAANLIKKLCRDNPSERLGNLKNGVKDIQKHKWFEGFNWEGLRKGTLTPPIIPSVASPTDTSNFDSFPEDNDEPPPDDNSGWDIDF
Outline: as §1

T1 sequence (O75116 11-552): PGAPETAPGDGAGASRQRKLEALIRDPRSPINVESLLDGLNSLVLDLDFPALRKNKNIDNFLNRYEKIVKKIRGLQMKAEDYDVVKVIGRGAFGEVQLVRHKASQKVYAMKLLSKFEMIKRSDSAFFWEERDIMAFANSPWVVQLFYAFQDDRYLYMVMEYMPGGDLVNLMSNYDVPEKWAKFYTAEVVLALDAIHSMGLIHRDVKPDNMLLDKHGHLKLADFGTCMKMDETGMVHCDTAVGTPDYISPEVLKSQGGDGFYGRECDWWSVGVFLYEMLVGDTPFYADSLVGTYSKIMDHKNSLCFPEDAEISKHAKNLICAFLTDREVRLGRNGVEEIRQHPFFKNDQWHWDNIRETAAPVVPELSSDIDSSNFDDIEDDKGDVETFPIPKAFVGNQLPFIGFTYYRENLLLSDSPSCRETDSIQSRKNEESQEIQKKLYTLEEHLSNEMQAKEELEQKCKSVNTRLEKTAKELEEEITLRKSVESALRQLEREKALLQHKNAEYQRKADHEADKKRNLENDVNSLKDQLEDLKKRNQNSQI

Row | SMILES | pIC50 [1] | Selectivity against PKA [2] | Selectivity against PKG [3]
1 | NC(C1CC1)[C@]1(c2ccccc2)CC[C@H](Oc2cc3cc[nH]c(=O)c3cc2Cl)CC1 (stereo partly drawn) [Example 26] | +++++++ (8.0≦pIC50) | >1000 | >300
2 | CCC(N)[C@]1(c2ccc(C(C)C)cc2)CC[C@H](Oc2cc3cc[nH]c(=O)c3cc2Cl)CC1 (stereo partly drawn) [Example 27, cis-6-[4-(1-Amino-propyl)-4-(4-isopropyl-phenyl)-cyclohexyloxy]-7-chloro-2H-iso quinolin-1-one] | ++++++ (7.0≦pIC50<8.0) | >100 | >10
3 | CCC(N)[C@]1(c2cccc(OC)c2)CC[C@H](Oc2cc3cc[nH]c(=O)c3cc2Cl)CC1 (stereo partly drawn) [Example 28] | +++++++ (8.0≦pIC50) | >1000 | >1000
4 | CCC(N)[C@]1(c2ccc(F)cc2)CC[C@@H](Oc2cc3cc[nH]c(=O)c3cc2Cl)CC1 (stereo partly drawn) [Example 31, trans-6-[4-(1-amino-propyl)-4-(4-fluoro-phenyl)-cyclohexyloxy]-7-chloro-2H-iso quinolin-1-one] | ++++++ (7.0≦pIC50<8.0) | >300 | >100
5 | CCC(N)[C@]1(c2ccccc2)CC[C@@H](Oc2cc3cc[nH]c(=O)c3cc2Cl)CC1 (stereo partly drawn) [Example 32] | ++++++ (7.0≦pIC50<8.0) | >1000 | >300
6 | CCC(N)[C@]1(c2ccccn2)CC[C@H](Oc2cc3cc[nH]c(=O)c3cc2Cl)CC1 (stereo partly drawn) [Example 55, cis-6-[4-(1-Amino-propyl)-4-pyridin-2-yl-cyclohexyloxy]-7-chloro-2H-isoquinolin-1-one] | +++++++ (8.0≦pIC50) | >1000 | >300
7 | CCC(N)[C@]1(c2ccc(F)cc2F)CC[C@H](Oc2cc3cc[nH]c(=O)c3cc2Cl)CC1 (stereo partly drawn) [Example 56, cis-6-[4-(1-Amino-propyl)-4-(2,4-difluoro-phenyl)-cyclohexyloxy]-7-chloro-2H-isoquinolin-1-one] | +++++++ (8.0≦pIC50) | >1000 | >300
8 | CCC(N)[C@]1(c2ccc(F)cc2C)CC[C@H](Oc2cc3cc[nH]c(=O)c3cc2Cl)CC1 (stereo partly drawn) [Example 57, cis-6-[4-(1-Amino-propyl)-4-(4-fluoro-2-methyl-phenyl)cyclohexyloxy]-7-chloro-2H-isoquinolin-1-one] | +++++++ (8.0≦pIC50) | >1000 | >300
9 | CCC(N)[C@]1(c2cc(F)cc(F)c2)CC[C@H](Oc2cc3cc[nH]c(=O)c3cc2Cl)CC1 (stereo partly drawn) [Example 58, cis-6-[4-(1-Amino-propyl)-4-(3,5-difluoro-phenyl)-cyclohexyloxy]-7-chloro-2H-isoquinolin-1-one] | +++++++ (8.0≦pIC50) | >1000 | >100
10 | CCC(N)[C@]1(c2ccc(F)c(F)c2)CC[C@H](Oc2cc3cc[nH]c(=O)c3cc2Cl)CC1 (stereo partly drawn) [Example 59, cis-6-[4-(1-Amino-propyl)-4-(3,4-difluoro-phenyl)-cyclohexyloxy]-7-chloro-2H-isoquinolin-1-one] | +++++++ (8.0≦pIC50) | >1000 | >300
11 | CCC(N)[C@]1(c2ccccc2C)CC[C@H](Oc2cc3cc[nH]c(=O)c3cc2Cl)CC1 (stereo partly drawn) [Example 60, cis-6-[4-(1-Amino-propyl)-4-o-tolyl-cyclohexyloxy]-7-chloro-2H-isoquinolin-1-one] | +++++++ (8.0≦pIC50) | >1000 | >100
12 | CCC(N)[C@]1(c2ccccc2OC(F)(F)F)CC[C@H](Oc2cc3cc[nH]c(=O)c3cc2Cl)CC1 (stereo partly drawn) [Example 61, cis-6-[4-(1-Amino-propyl)-4-(2-trifluoromethoxy-phenyl)-cyclohexyloxy]-7-chloro-2H-iso quinolin-1-one] | +++++ (6.0≦pIC50<7.0) | >10 | >1
13 | CCC(N)[C@]1(c2ccc(F)c(OC)c2)CC[C@H](Oc2cc3cc[nH]c(=O)c3cc2Cl)CC1 (stereo partly drawn) [Example 62, cis-6-[4-(1-Amino-propyl)-4-(4-fluoro-3-methoxy-phenyl)-cyclohexyloxy]-7-chloro-2H-iso quinolin-1-one] | +++++++ (8.0≦pIC50) | >1000 | >300
14 | CCOc1cccc([C@]2(C(N)CC)CC[C@@H](Oc3cc4cc[nH]c(=O)c4cc3Cl)CC2)c1 (stereo partly drawn) [Example 63, cis-6-[4-(1-Amino-propyl)-4-(3-ethoxy-phenyl)-cyclohexyloxy]-7-chloro-2H-isoquinolin-1-one] | +++++++ (8.0≦pIC50) | >1000 | >300
15 | CCC(N)[C@]1(c2cc(F)cc(F)c2)CC[C@H](Oc2cc3cc[nH]c(=O)c3cc2F)CC1 (stereo partly drawn) [Example 66] | +++++ (6.0≦pIC50<7.0) | >10 | >10
16 | CCC(N)[C@]1(c2ccccc2OC)CC[C@H](Oc2cc3cc[nH]c(=O)c3cc2Cl)CC1 (stereo partly drawn) [Example 69, cis-6-[4-(1-Amino-propyl)-4-(2-methoxy-phenyl)-cyclohexyloxy]-7-chloro-2H isoquinolin-1-one] | +++++++ (8.0≦pIC50) | >1000 | >300
17 | CCC(N)[C@]1(c2ccc(OC(F)(F)F)cc2)CC[C@H](Oc2cc3cc[nH]c(=O)c3cc2Cl)CC1 (stereo partly drawn) [Example 70, cis-6-[4-(1-Amino-propyl)-4-(4-trifluoro-methoxy-phenyl)-cyclohexyloxy]-7-chloro-2H-isoquinolin-1-one] | +++++++ (8.0≦pIC50) | >1000 | >1000
18 | CC(C)(N)[C@]1(c2ccc(F)cc2)CC[C@H](Oc2cc3cc[nH]c(=O)c3cc2Cl)CC1 [Example 77, cis-6-[4-(1-Amino-1-methyl-ethyl)-4-(4-fluoro-phenyl)-cyclohexyloxy]-7-chloro-2H-isoquinolin-1-one] | +++++++ (8.0≦pIC50) | >1000 | >300
19 | NC(C1CC1)[C@]1(c2ccc(F)cc2)CC[C@H](Oc2cc3cc[nH]c(=O)c3cc2Cl)CC1 (stereo partly drawn) [Example 82, cis-6-[4-(Amino-cyclopropyl-methyl)-4-(4-fluoro-phenyl)-cyclohexyloxy]-7-chloro-2H-isoquinolin-1-one] | +++++++ (8.0≦pIC50) | >1000 | >1000
20 | CCC(N)[C@]1(c2cccc(C(F)(F)F)c2)CC[C@H](Oc2cc3cc[nH]c(=O)c3cc2Cl)CC1 (stereo partly drawn) [Example 83, cis-6-[4-(1-Amino-propyl)-4-(3-trifluoromethyl-phenyl)-cyclohexyloxy]-7-chloro-2H-isoquinolin-1-one] | +++++ (6.0≦pIC50<7.0) | >100 | >10
21 | CCC(N)[C@]1(c2cccc(OC(F)(F)F)c2)CC[C@H](Oc2cc3cc[nH]c(=O)c3cc2Cl)CC1 (stereo partly drawn) [Example 84, cis-6-[4-(1-Amino-propyl)-4-(3-trifluoromethoxy-phenyl)-cyclohexyloxy]-7-chloro-2H-iso quinolin-1-one] | +++++ (6.0≦pIC50<7.0) | >100 | >10
22 | CCC(N)[C@]1(c2cccc(OC(F)(F)F)c2)CC[C@H](Oc2cc3cc[nH]c(=O)c3cc2C)CC1 (stereo partly drawn) [Example 85, cis-6-[4-(1-Amino-propyl)-4-(3-trifluoro-methoxy-phenyl)-cyclo-hexyloxy]-7-methyl-2H-iso quinolin-1-one] | +++++ (6.0≦pIC50<7.0) | >100 | >10
23 | CCC(N)[C@]1(c2cccc(C(F)(F)F)c2)CC[C@H](Oc2cc3cc[nH]c(=O)c3cc2C)CC1 (stereo partly drawn) [Example 86, cis-6-[4-(1-Amino-propyl)-4-(3-trifluoromethyl-phenyl)-cyclohexyloxy]-7-methyl-2H-iso quinolin-1-one] | +++++ (6.0≦pIC50<7.0) | >10 | >10
